# Residue numbers refer to the chain shown, from its start.
# What was measured:
# Assay in all cases: inside-out macropatch dose-response of channel expressed in Xenopus oocytes
# Assay type in all cases: cell-based
# Kir2.2 [1] = target: T1, Kir2.2 (Homo sapiens, UniProt Q14500, I223L)
# T1 construct: gene KCNJ12
# T1 sequence (Q14500 1-433 I223L): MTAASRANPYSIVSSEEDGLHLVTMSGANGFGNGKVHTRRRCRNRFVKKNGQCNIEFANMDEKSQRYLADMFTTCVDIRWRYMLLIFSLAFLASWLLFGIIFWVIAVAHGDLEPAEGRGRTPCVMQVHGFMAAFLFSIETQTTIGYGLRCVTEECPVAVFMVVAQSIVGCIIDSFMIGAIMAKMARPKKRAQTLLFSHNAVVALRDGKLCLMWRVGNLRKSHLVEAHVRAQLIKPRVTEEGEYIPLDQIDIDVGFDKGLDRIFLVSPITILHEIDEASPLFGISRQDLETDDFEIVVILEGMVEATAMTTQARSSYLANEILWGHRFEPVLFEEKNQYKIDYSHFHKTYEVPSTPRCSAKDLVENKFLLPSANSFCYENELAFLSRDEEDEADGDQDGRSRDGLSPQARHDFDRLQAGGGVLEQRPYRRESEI
# Kir2.2 [2] = target: T2, Kir2.2 (Homo sapiens, UniProt Q14500)
# T2 construct: gene KCNJ12
# T2 sequence (Q14500 1-433): T1 sequence (Q14500 1-433 I223L) with L223I
# Kir2.1 [3] = target: T3, Kir2.1 (Mus musculus, UniProt P35561, L222I)
# T3 construct: gene Kcnj2
# T3 sequence (P35561 1-428 L222I): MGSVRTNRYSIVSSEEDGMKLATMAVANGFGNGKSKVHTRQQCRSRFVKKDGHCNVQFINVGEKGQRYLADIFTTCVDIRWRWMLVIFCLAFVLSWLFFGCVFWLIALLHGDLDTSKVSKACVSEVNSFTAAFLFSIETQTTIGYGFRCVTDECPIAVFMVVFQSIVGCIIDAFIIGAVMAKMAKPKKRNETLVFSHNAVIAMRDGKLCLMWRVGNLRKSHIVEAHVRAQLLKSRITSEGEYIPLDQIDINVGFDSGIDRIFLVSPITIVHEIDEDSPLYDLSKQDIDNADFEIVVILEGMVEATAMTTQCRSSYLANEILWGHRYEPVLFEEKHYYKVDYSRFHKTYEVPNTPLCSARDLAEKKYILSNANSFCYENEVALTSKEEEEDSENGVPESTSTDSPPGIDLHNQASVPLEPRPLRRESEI
# Kir2.1 [4] = target: T4, Kir2.1 (Mus musculus, UniProt P35561)
# T4 construct: gene Kcnj2
# T4 sequence (P35561 1-428): T3 sequence (P35561 1-428 L222I) with I222L
structure (smiles),measurement,setting,value
CCCCCCCC(=O)OC[C@H](COP(=O)(O)O[C@@H]1[C@H](O)[C@H](O)[C@@H](OP(=O)(O)O)[C@H](OP(=O)(O)O)[C@H]1O)OC(=O)CCCCCCC [diC8 PIP2],EC50,Kir2.2 [1],1.9 ± 0.23 µM
same,EC50,Kir2.2 [2],6.14 ± 0.45 µM
same,EC50,Kir2.1 [3],14 ± 0.98 µM
same,EC50,Kir2.1 [4],2.89 ± 0.31 µM

# Reference: PMC5085999, “Structural Basis for Differences in Dynamics Induced by Leu Versus Ile Residues in the CD Loop of Kir Channels” (Molecular Neurobiology, 2015)
